Our source for the mutagenic call and call values is PubChem BioAssay AID1259408 (Genetic Toxicology Data Bank (GENE-TOX), 2018).

The data set concerns GENE-TOX genotoxicity assays, various organisms and cells. The experiment in a line: GENE-TOX mutagenicity studies. The settings on record: for call: Assay Type: In vivo carcinogenicity studies.
Setting [1] is: Species/Cell Type: Drosophila melanogaster, Assay Type: Sex-linked recessive lethal gene mutation, Assay Code: SRL+, Evaluation Type: Evaluation A (Pre-1980).
The mark [2] stands for this setting: Species/Cell Type: Salmonella typhimurium (one or more of the five standard strains: TA98, TA100, TA1535, TA1537, and TA1538), Assay Type: Histidine reverse gene mutation, Ames assay, Assay Code: SAL+*, Activation: With metabolic activation, Evaluation Type: Evaluation A (Pre-1980).
Where [3] appears, read: Species/Cell Type: Human lymphocytes, Assay Type: Sister-chromatid exchange (SCE) in vitro, Assay Code: SCL+D, Dose Response: With dose response, Evaluation Type: Evaluation B (Post-1980).
[4] abbreviates: Species/Cell Type: Human, Assay Type: Sister-chromatid exchange (SCE) in vitro, Assay Code: SC1+D, Dose Response: With dose response, Evaluation Type: Evaluation B (Post-1980).
Where [5] appears, read: Species/Cell Type: Mammalian polychromatic erythrocytes, Assay Type: Micronucleus test, chromosome aberrations, Assay Code: MNT+, Evaluation Type: Evaluation A (Pre-1980).
Setting [6] is: Species/Cell Type: Neurospora crassa, Assay Type: Aneuploidy, chromosome aberrations, Assay Code: NEN-, Evaluation Type: Evaluation A (Pre-1980).
Setting [7] is: Species/Cell Type: Nonhuman, Assay Code: CCG+, Evaluation Type: Evaluation A (Pre-1980).
Setting [8] is: Species/Cell Type: Nonhuman, Assay Type: Sister-chromatid exchange (SCE) in vitro, Assay Code: SC2-, Evaluation Type: Evaluation A (Pre-1980).
Setting [9] is: Species/Cell Type: Salmonella typhimurium (one or more of the five standard strains: TA98, TA100, TA1535, TA1537, and TA1538), Assay Type: Histidine reverse gene mutation, Ames assay, Assay Code: SAL-, Evaluation Type: Evaluation A (Pre-1980).
[10] abbreviates: Species/Cell Type: Nonhuman, Assay Type: Sister-chromatid exchange (SCE) in vitro, Assay Code: SC2+D, Dose Response: With dose response, Evaluation Type: Evaluation B (Post-1980).

The source made the active and inactive calls. The rule behind the calls is not given here.

`CCOC(=O)N(CC)N=O`: the mutagenic call by setting is: (Species/Cell Type: Arabidopsis species, Assay Type: Gene mutation, Assay Code: ARM+D, Dose Response: With dose response, Evaluation Type: Evaluation A (Pre-1980)) “active; positive”; (Species/Cell Type: Drosophila melanogaster, Assay Type: Aneuploidy, partial sex chromosome loss, chromosome aberrations, Assay Code: DAP+MDAC+M, Dose Response: With dose response, Evaluation Type: Evaluation A (Pre-1980)) “active; positive”; (Species/Cell Type: Drosophila melanogaster, Assay Type: Aneuploidy, sex chromosome gain, chromosome aberrations, Assay Code: DAGT, Evaluation Type: Evaluation A (Pre-1980)) “no conclusion”; under setting [1], “active; positive”; (Species/Cell Type: Escherichia coli polA (W3119 vs P3478), Assay Type: Rec-assay, DNA effects (bacterial DNA repair), Assay Code: RE1+, Evaluation Type: Evaluation A (Pre-1980)) “active; positive”; (Species/Cell Type: Hordeum vulgare (barley), Assay Type: Gene mutation, Assay Code: HOM+D, Dose Response: With dose response, Evaluation Type: Evaluation A (Pre-1980)) “active; positive”. The mutagenic call reads like this: (Species/Cell Type: Neurospora crassa, Assay Type: Reverse gene mutation, Assay Code: NER+, Evaluation Type: Evaluation A (Pre-1980)) “active; positive”; (Species/Cell Type: Saccharomyces cerevisiae, Assay Type: Mitotic recombination or gene conversion, Assay Code: YEC+, Evaluation Type: Evaluation A (Pre-1980)) “active; positive”; (Species/Cell Type: Salmonella typhimurium (one or more of the five standard strains: TA98, TA100, TA1535, TA1537, and TA1538), Assay Type: Histidine reverse gene mutation, Ames assay, Assay Code: SAL+, Evaluation Type: Evaluation A (Pre-1980)) “active; positive”; (Species/Cell Type: Schizosaccharomyces pombe, Assay Type: Reverse gene mutation, Assay Code: YEZ+, Evaluation Type: Evaluation A (Pre-1980)) “active; positive”.
Turning to `CC[C@@]1(O)C[C@H](O[C@H]2C[C@H](N)[C@H](O)[C@H](C)O2)c2c(cc3c(c2O)C(=O)c2c(O)cccc2C3=O)[C@H]1C(=O)OC`, the mutagenic call under setting [2] was “active; positive”.
For `CC1(C)[C@@H](O[C@H]2O[C@H](C(=O)O)[C@@H](O)[C@H](O)[C@H]2O[C@@H]2O[C@H](C(=O)O)[C@@H](O)[C@H](O)[C@H]2O)CC[C@]2(C)[C@H]3C(=O)C=C4[C@@H]5C[C@@](C)(C(=O)O)CC[C@]5(C)CC[C@@]4(C)[C@]3(C)CC[C@@H]12`, under “Species/Cell Type: Human, Assay Type: Sister-chromatid exchange (SCE) in vitro, Assay Code: SC1T, Evaluation Type: Evaluation B (Post-1980)”, the mutagenic call is recorded as “no conclusion”.
For the molecule `CC/C(=C(/CC)c1ccc(O)cc1)c1ccc(O)cc1`, the mutagenic call (Species/Cell Type: Escherichia coli polA (W3119 vs P3478), Assay Type: Rec-assay, DNA effects (bacterial DNA repair), Assay Code: RE1T, Evaluation Type: Evaluation A (Pre-1980)) is given as “no conclusion”; the mutagenic call (Species/Cell Type: Fischer rat embryo (RLV/1706) cells, Assay Type: Cell transformation, viral enhanced, Assay Code: CTR+, Evaluation Type: Evaluation A (Pre-1980)) was “active; positive”; the mutagenic call (Species/Cell Type: Human diploid fibroblasts, Assay Type: Unscheduled DNA synthesis (UDS) in vitro, DNA effects, Assay Code: UDHT, Evaluation Type: Evaluation A (Pre-1980)) is given as “no conclusion”; the mutagenic call under setting [3] is “active; positive”; the mutagenic call under setting [4] is “active; positive”; the mutagenic call (Species/Cell Type: Human, Sex: Male, Assay Type: Sperm morphology, Assay Code: SPHT, Evaluation Type: Evaluation A (Pre-1980)) was “no conclusion”. The mutagenic call is “active; positive” under setting [5]; “inactive; negative” (Species/Cell Type: Mouse (BALB/c-3T3) cells, Assay Type: Cell transformation, Assay Code: CTB-, Evaluation Type: Evaluation A (Pre-1980)); “active; positive” (Species/Cell Type: Mouse lymphoma (L5178Y) cells, Assay Type: Forward gene mutation at the thymidine kinase (TK) locus, chromosome aberrations, Assay Code: L51+, Evaluation Type: Evaluation A (Pre-1980)); “no conclusion” (Species/Cell Type: Mouse, Sex: Male, Assay Type: Sperm morphology, Assay Code: SPIT, Evaluation Type: Evaluation A (Pre-1980)); “inactive; negative” under setting [6]; “active; positive” (Species/Cell Type: Nonhuman, Assay Type: Sister-chromatid exchange (SCE) in vitro, Assay Code: SC2+, Evaluation Type: Evaluation B (Post-1980)). Besides, the mutagenic call is “inactive; negative” under setting [8]; “active; positive” (Species/Cell Type: Nonhuman, Assay Type: Sister-chromatid exchange (SCE) in vivo, Assay Code: SC3+, Evaluation Type: Evaluation B (Post-1980)); “inactive; negative” under setting [9]; “inactive; negative” (Species/Cell Type: Salmonella typhimurium, Assay Type: Forward and reverse gene mutation, body fluid assay, Assay Code: BFU-, Evaluation Type: Evaluation A (Pre-1980)); “no conclusion” (Species/Cell Type: Syrian hamster embryo (SHE) cells, Assay Type: Cell transformation, clonal assay, Assay Code: CTCT, Evaluation Type: Evaluation A (Pre-1980)); “active; positive” (Species/Cell Type: Tradescantia species, Assay Type: Gene mutation, Assay Code: TRM+D, Dose Response: With dose response, Evaluation Type: Evaluation A (Pre-1980)). The call under setting [7] was “active; positive”.
On to `O=P1(NCCCl)OCCCN1CCCl` (configuration not stated), for which the mutagenic call was “inactive; negative” (Species/Cell Type: Drosophila melanogaster, Assay Type: Aneuploidy, partial sex chromosome loss, chromosome aberrations, Assay Code: DAP-M, Evaluation Type: Evaluation A (Pre-1980)); “inactive; negative” (Species/Cell Type: Drosophila melanogaster, Assay Type: Aneuploidy, whole sex chromosome loss, chromosome aberrations, Assay Code: DAC-M, Evaluation Type: Evaluation A (Pre-1980)); “active; positive” under setting [1]; “active; positive” under setting [5]; “active; positive” (Species/Cell Type: Saccharomyces cerevisiae, Assay Type: Forward and reverse gene mutation, mitotic recombination and gene conversion, DNA effects, body fluid assay, Assay Code: BFC+, Evaluation Type: Evaluation A (Pre-1980)); “no conclusion” (Species/Cell Type: Saccharomyces cerevisiae, Assay Type: Forward and reverse gene mutation, mitotic recombination and gene conversion, host-mediated assay, Assay Code: HMET, Evaluation Type: Evaluation A (Pre-1980)). Further, the mutagenic call (Species/Cell Type: Saccharomyces cerevisiae, Assay Type: Mitotic recombination or gene conversion, Assay Code: YEC+*, Activation: With metabolic activation, Evaluation Type: Evaluation A (Pre-1980)) is “active; positive” and the mutagenic call under setting [2] is “active; positive”. Moreover, under setting [7], the call is “active; positive”.
`ClC1=C(Cl)C2(Cl)C3C(Cl)C(Cl)CC3C1(Cl)C2(Cl)Cl` (configuration not stated): the mutagenic call is “active; positive” (Species/Cell Type: Chinese hamster lung (V79) cells, Assay Type: Forward gene mutation at the HPRT or ouabain locus, Assay Code: V79+, Evaluation Type: Evaluation A (Pre-1980)); “no conclusion” (Species/Cell Type: Rodents, Sex: Male, Assay Type: Dominant lethal test, Assay Code: DLTT, Evaluation Type: Evaluation A (Pre-1980)); “active; positive” (Species/Cell Type: Zea mays (corn), Assay Type: Gene mutation, Assay Code: ZEM+, Evaluation Type: Evaluation A (Pre-1980)). For the same molecule, for the setting “Species/Cell Type: Nonhuman, Assay Code: CCG+L, Evaluation Type: Evaluation A (Pre-1980)”, the call was “active; positive”.
As to `O=C1c2ccccc2C(=O)c2c(NCCNCCO)ccc(NCCNCCO)c21`, under setting [10], the mutagenic call was “active; positive”.
Regarding `c1ccc2c(c1)-c1cccc3cccc-2c13`, the mutagenic call (Species/Cell Type: Chinese hamster ovary (CHO) cells, Assay Type: Forward gene mutation at the HPRT locus, Assay Code: CHO+*, Activation: With metabolic activation, Evaluation Type: Evaluation B (Post-1980)) was “active; positive”; the mutagenic call (Species/Cell Type: Fischer rat embryo (RLV/1706) cells, Assay Type: Cell transformation, viral enhanced, Assay Code: CTRT, Evaluation Type: Evaluation A (Pre-1980)) was “no conclusion”; the mutagenic call under setting [10] is “active; positive”; the mutagenic call (Species/Cell Type: Nonhuman, Assay Type: Sister-chromatid exchange (SCE) in vivo, Assay Code: SC3-, Evaluation Type: Evaluation B (Post-1980)) was “inactive; negative”.
In the case of `O=c1ccc(=O)[nH][nH]1`, the mutagenic call is “active; positive” (Species/Cell Type: Allium cepa, Assay Type: Chromosome aberrations, Assay Code: ALC+, Evaluation Type: Evaluation A (Pre-1980)); “inactive; negative” (Species/Cell Type: Arabidopsis species, Assay Type: Gene mutation, Assay Code: ARM-, Evaluation Type: Evaluation A (Pre-1980)); “active; positive” under setting [1]; “active; positive” (Species/Cell Type: Hordeum vulgare (barley), Assay Type: Chromosome aberrations, Assay Code: HOC+, Evaluation Type: Evaluation A (Pre-1980)); “active; positive” under setting [3]; “active; positive” under setting [4]. In addition, the mutagenic call reads like this: (Species/Cell Type: Mammalian polychromatic erythrocytes, Assay Type: Micronucleus test, chromosome aberrations, Assay Code: MNTT, Evaluation Type: Evaluation A (Pre-1980)) “no conclusion”; under setting [6], “inactive; negative”; under setting [10], “active; positive”; under setting [8], “inactive; negative”; under setting [9], “inactive; negative”; (Species/Cell Type: Vicia faba, Assay Type: Chromosome aberrations, Assay Code: VIC+D, Dose Response: With dose response, Evaluation Type: Evaluation A (Pre-1980)) “active; positive”. Further, the call (Species/Cell Type: Nonhuman, Assay Code: CCG-L, Evaluation Type: Evaluation A (Pre-1980)) is “inactive; negative”.
